Measurements from paper PMC10901194, “Boronic acid inhibitors of penicillin-binding protein 1b: serine and lysine labelling agents” (Journal of Enzyme Inhibition and Medicinal Chemistry, 2024).
≈ marks a conversion by molar mass, not a printed value. Where “and” joins values, the source holds several entries; their conditions need not be identical. Equal entries are not always repeated. Where two headings read alike, the source gives them in different places.

How the values were obtained:
PBP1b [1] = biological target: T1, PBP1b (Streptococcus pneumoniae, UniProt Q7CRA4); assay: PBP1b inhibition, hydrolysis of thioester substrate analogue (residual activity, IC50); assay type: biochemical
Experimental: The inhibitory activity of 26 compounds was tested in the assay[31] employing a thioester substrate analogue at a concentration of 500 and 50 µM (Table S1).
Residual activities were determined by the ability of a potential inhibitor to hinder the hydrolysis of substrate analogue thioester (2-((benzoyl-D-alanyl)thio)acetic acid) as already described. PBP1b, prepared according to literature[31] (0.8 µM), was incubated with potential inhibitor (final concentration 500 µM) in 10 mM sodium phosphate buffer (pH = 7.0) in the presence of 100 mM D-alanine, 0.01 mg/mL BSA, and 0.01% Triton-X-100 for 60 min at 25 °C. After preincubation, the 5,5′-dithiobis-(2-nitrobenzoic acid) (DTNB) and thioester were added to each well to initiate the reaction and to obtain a final concentration of 1 mM and 5 mM, respectively. The final volume of the reaction was 150 µL. The initial rate of thioester hydrolysis was determined by measuring the absorbance at 412 nm for 30 min using a microtiter 96-well plate and Biotek Synergy H4 Hybrid microplate reader. The same assay was performed in the absence of an inhibitor. […] All experiments were run in triplicate. The ratio of the rate of reaction with inhibitor to the rate of reaction without compound expressed as a percentage gives the (RA [%] = ((vi – b)/(vo – b)) * 100, where b is the blank value for the initial rate of spontaneous hydrolysis of the thioester in the presence of the potential inhibitor and in the absence of PBP1b). The IC50 values were determined by measuring the reaction rates at seven different inhibitor concentrations.

E. coli (ATCC 25922) = assay: Antimicrobial testing, broth microdilution (MIC); assay type: cell-based; settings: Escherichia coli, ATCC25922; E. coli ATCC 25922, 20 h at 35 °C
Experimental: (§1) Antimicrobial testing was carried out by the broth microdilution method in 96-well plate format following the CLSI guidelines and European Committee for Antimicrobial Susceptibility Testing recommendations. Bacterial suspension of specific bacterial strain equivalent to 0.5 McFarland turbidity standard was diluted with cation-adjusted Mueller Hinton broth to obtain a final inoculum of 10^5 CFU/mL. Compounds dissolved in DMSO and inoculum were mixed together and incubated for 20 h at 35 °C. After incubation the minimal inhibitory concentration (MIC) values were determined by visual inspection as the lowest dilution of compounds showing no turbidity. The MICs were determined against S. aureus (ATCC 29213) and E. coli (ATCC 25922) bacterial strains. Tetracycline was used as a positive control on every assay plate.

S. aureus (ATCC 29213) = assay: Antimicrobial testing, broth microdilution (MIC); assay type: cell-based; settings: Staphylococcus aureus, ATCC29213; S. aureus ATCC 29213, 20 h at 35 °C
Experimental: as §1

PBP1b [2] = biological target: T1, PBP1b; assay: LC-MS/MS covalent labelling of PBP1b; assay type: binding; settings: 450-fold excess of compound, 45 °C, 2 h
Experimental: Further experimental study of 2-formylbenzeneboronic acid 29 and 30 was performed to characterise their binding.
The measurements were preformed analogously to those reported in Kollár et al. and Petri et al.[68]^,[69] The protein stock solution (20.0 µL and 37.0 µM) was diluted with buffer solution (20.0 µL; pH 7.0; 20 mM Hepes, 100 mM NaCl, 1 mM EDTA, and 10% glycerol), then the stock solution of the inhibitor (0.66 µL, 500 mM in DMSO) was added. The sample was incubated at 45 °C for 120 min and then subjected to LC-MS/MS measurements. The molecular weights of the conjugates of PBP1b were identified using a Triple TOF 5600+ hybrid Quadrupole-TOF LC/MS/MS system (Sciex, Singapore, Woodlands) equipped with a DuoSpray IonSource coupled with a Shimadzu Prominence LC20 UFLC (Shimadzu, Kyoto, Japan) system consisting of binary pump, an autosampler and a thermostated column compartment.
Data acquisition and processing were performed using Analyst TF software version 1.7.1 (AB Sciex Instruments, Redwood City, CA). Chromatographic separation was achieved on a Merck BIOshell^TM 400 Å Protein C18 (75 mm × 2.1mm, 3.4 µm, 400 Å) HPLC column. Sample was eluted in gradient elution mode using solvent A (0.1% formic acid in water) and solvent B (0.1% formic acid in ACN). […]

[3] = 1 h, pH 7, residual activity at 500 µM inhibitor, 60 min preincubation; read-out: RA [%] @500 µM
[4] = 1 h, pH 7, Table S1, 50 µM, 60 min preincubation; read-out: RA%@50µM PBP1b S.pneumoniae, 60 min preincubation
[5] = 1 h, pH 7, Table S1, 500 µM, 60 min preincubation; read-out: RA%@500µM PBP1b S.pneumoniae, 60 min preincubation
[6] = PBP1b 0.8 µM, 60 min preincubation at 25 °C, thioester substrate; read-out: IC50

| activity at 500 µM (PBP1b [1]; [3]) | IC50 (PBP1b [1]; [6]) | MIC (E. coli (ATCC 25922)) | MIC (S. aureus (ATCC 29213)) | Structure (SMILES) | further results |
| --- | --- | --- | --- | --- | --- |
| 81.1 ± 1.6% |  |  |  | Cn1cc(C(=O)N2CCC(B(O)O)C2)nn1 (stereo not shown) [Compound 6] |  |
|  | 127 ± 14.4 µM | > 250 µM | > 250 µM | CC(NC(=O)c1ccc(B(O)O)cc1)C1CCC(F)(F)CC1 (stereo not shown) [Compound 1] | activity at 50 µM (PBP1b [1]; [4]): 78.8 ± 2.7%; activity at 500 µM (PBP1b [1]; [5]): < 50% |
| 48.1 ± 2% |  |  |  | CC1(C)OB(C(CC(=O)Nc2ccccc2)NC(=O)c2ccccc2F)OC1(C)C (stereo not shown) [Compound 17] |  |
| 86.3 ± 8.4% |  |  |  | Cc1cc(C(=O)N2CCC(B(O)O)C2)ccn1 (stereo not shown) [Compound 3] |  |
|  | ~213 µM and 213 µM | > 250 µM | > 250 µM | Cn1cc(C(=O)NCB(O)O)nn1 [Compound 8] |  |
| 56.9 ± 0.8% |  |  |  | O=Cc1ccccc1NCc1ccccc1B(O)O [Compound 33] | PBP1b inhibition (in words) (PBP1b [1]): slight activity in the millimolar concentration range |
|  | 200 ± 15.3 µM | > 250 µM | > 250 µM | O=Cc1cc(C(F)(F)F)ccc1B(O)O [Compound 30] | PBP1b inhibition (in words) (PBP1b [1]): inhibitors of PBP1b; time-dependent inhibition (PBP1b [1]): No time-dependent inhibition; labelling of PBP1b in MS/MS experiments (PBP1b [2]): single labelling of PBP1b was observed |
| 68.9 ± 8.2% |  | > 250 µM | 62.5 µM (≈ 27.1 µg/mL) | O=C(NC(CC(=O)N(Cc1ccccc1)Cc1ccccc1)B(O)O)c1ccccc1F (stereo not shown) [Compound 19] |  |
| 96.6 ± 0.6% |  |  |  | CC1(C)OB(c2ccccc2CNc2ccccc2C=O)OC1(C)C [Compound 32] | PBP1b inhibition (in words) (PBP1b [1]): does not inhibit PBP1b at 1 mM concentration |
| 66.3 ± 7% |  |  |  | CC1(C)OB(C(CC(=O)N(Cc2ccccc2)Cc2ccccc2)NC(=O)c2ccccc2F)OC1(C)C (stereo not shown) [Compound 18] |  |
| 85.7 ± 9.5% |  |  |  | CCC(=O)Nc1cccc(C(=O)N2CCC(B(O)O)C2)c1 (stereo not shown) [Compound 5] |  |
|  | 206 ± 21.7 µM | > 250 µM | 125 µM (≈ 41.3 µg/mL) | O=C(c1ccn(-c2cccc([N+](=O)[O-])c2)n1)N1CCC(B(O)O)C1 (stereo not shown) [Compound 2] | activity at 50 µM (PBP1b [1]; [4]): 83.5 ± 0.1%; activity at 500 µM (PBP1b [1]; [5]): < 50% |
|  |  |  |  | C[C@H]1[C@H](NC(=O)/C(=N\OC(C)(C)C(=O)O)c2csc(N)n2)C(=O)N1S(=O)(=O)O [Aztreonam, reference compound] | activity at 500 µM (PBP1b [1]; 1 h, pH 7, read-out: RA [%] @500 µM): 1.4 ± 0.1%; IC50 (PBP1b [1]; IC50, PBP1b 0.8 µM, 60 min preincubation at 25 °C, thioester substrate): < 0.8 µM |
|  |  |  |  | CC(=O)c1ccccc1B(O)O [Compound 31] | PBP1b inhibition (in words) (PBP1b [1]): inactive; activity at 500 µM (PBP1b [1]; 1 h, pH 7; read-out: RA [%] @500 µM): 96.7% |
|  | 119 ± 6 µM | > 250 µM | > 250 µM | O=Cc1ccccc1B(O)O [Compound 29] | PBP1b inhibition (in words) (PBP1b [1]): inhibitors of PBP1b; time-dependent inhibition (PBP1b [1]): No time-dependent inhibition; labelling of PBP1b in MS/MS experiments (PBP1b [2]): single labelling of PBP1b was observed |
|  | 28.2 ± 7.4 µM | > 250 µM | > 250 µM | O=C(NCB(O)O)c1ccccc1F [Compound 9, reference compound] | free energy gain in complex formation (ΔGdc) (PBP1b [1]; from IC50 accepted as approximation to Ki): -6.2 kcal/mol |
| 60.9 ± 7.6% |  |  |  | O=C(C1Cc2cccc(F)c2O1)N1CCC(B(O)O)C1 (stereo not shown) [Compound 4] |  |
